Source: patent US6500821B1, “4-amino-1-aryl-1,5-dihydropyrrol-2-ones and process for making” (Arzneimittelwerk Dresden GmbH, priority 1999, dated 2002)

Tests used:
[1] = system: maximal electroshock; test: Anticonvulsive action, maximal electroshock (MES), mouse i.p.; assay type: in vivo; conditions: for responders at 100 mg/kg / responders at 300 mg/kg: ip, read-out: Action, % of the protected animals
Protocol: (§1) Compounds according to the present invention were tested in vivo for their anticonvulsive action as shown in Table 1 in mice by i.p. administration, or in rats administered orally according to the internationally customary standard (Pharmac. Weekblad, Sc.Ed. 14 132 (1992) and Antiepileptic Drugs, Third Ed., Raven Press, New York 1989). [table]

[2] = system: s.c. pentetrazole; test: Anticonvulsive action, s.c. pentetrazole (PTZ), mouse i.p.; assay type: in vivo
Protocol: as §1

[3] = Octanol/water partition coefficient; assay type: physicochemical; conditions: for logP: read-out: log P (octanol/water partition coefficient)
[4] = system: Vogel Conflict Test; test: Vogel Conflict Test; assay type: in vivo, rat; conditions: for Changed number of impulses to the control in % / dose from which an anxiolytic action was detected / equally effective dose: rat; for dose from which an anxiolytic action was detected / equally effective dose: p.o.
Excerpt: In this model, continuous access to drinking water is withheld from rats for a certain time. After this period, free access is given to drinking water, but is coupled with a mild electrical stimulation. The conflict for the animals is between accepting the electrical stimulation or going without a drink.
The reactions to a conflict situation of this type are similar to the secondary phenomena of anxiety in man. The resulting avoidance reactions can be suppressed by anxiolytic substances. As a measure of the anxiolytic action, the number of tolerated current pulses of the animals treated with the test substance is assessed in comparison to the vehicle-treated control group.

[5] = ip, dose 100 mg/kg, read-out: Action, % of the protected animals
[6] = ip, dose 300 mg/kg, read-out: Action, % of the protected animals

Row | SMILES | responders at 100 mg/kg ([1]; dose 100 mg/kg) | responders at 100 mg/kg [2, 5] | melting point | responders at 300 mg/kg ([1]; dose 300 mg/kg) | logP [3] | further results
1 | O=C1C=C(N2CCOCC2)CN1c1ccccc1 [Compound 25, 4-morpholin-4-yl-1-phenyl-1,5-dihydropyrrol-2-one] | 40% | 66% | 161 to 164 °C |  |  | 
2 | O=C1C=C(N2CCOCC2)CN1c1ccc(C(F)(F)F)cc1 [Compound 8, 4-morpholin-4-yl-1-(4-trifluoromethylphenyl)-1,5-dihydropyrrol-2-one] | 66% | 100% | 205 to 207 °C |  |  | 
3 | CC1CCCN(C2=CC(=O)N(c3ccc(Cl)cc3)C2)C1 (stereo not drawn) [Compound 19, 1-(4-chlorophenyl)-4-(3-methylpiperidin-1-yl)-1,5-dihydropyrrol-2-one] |  | 40% | 188 to 189 °C | 0% | 3.58 | 
4 | CCN(CC)C1=CC(=O)N(c2ccc(Cl)cc2)C1 [Compound 23, 1-(4-chlorophenyl)-4-(diethylamino)-1,5-dihydropyrrol-2-one] |  |  | 165 to 168 °C | 50% |  | responders at 300 mg/kg [2, 6]: 66%
5 | O=C1C=C(N2CCOCC2)CN1c1ccc(F)cc1 [Compound 3, 1-(4-fluorophenyl)-4-morpholin-4-yl-1,5-dihydropyrrol-2-one] | 50% | 33% | 226 to 229 °C |  |  | 
6 | CC1CCCCN1C1=CC(=O)N(c2ccc(Cl)cc2)C1 (stereo not drawn) [Compound 20, 1-(4-chlorophenyl)-4-(2-methylpiperidin-1-yl)-1,5-dihydropyrrol-2-one] |  | 40% | 181 to 185 °C | 66% |  | 
7 | COc1cc(N2CC(N3CCOCC3)=CC2=O)cc(OC)c1OC [Compound 11, 4-morpholin-4-yl-1-(3,4,5-trimethoxyphenyl)-1,5-dihydropyrrol-2-one] |  |  | 179 to 182 °C | 0% |  | responders at 300 mg/kg [2, 6]: 66%
8 | O=C1C=C(N2CCOCC2)CN1c1ccc(Br)cc1 [Compound 5, 1-(4-bromophenyl)-4-morpholin-4-yl-1,5-dihydropyrrol-2-one] | 33% | 100% | 230 to 233 °C |  | 2.16 | 
9 | Cc1ccc(N2CC(N3CCCCC3)=CC2=O)cc1 [Compound 15, 1-(4-methylphenyl)-4-piperidin-1-yl-1,5-dihydropyrrol-2-one] | 100% | 100% | 174 to 177 °C |  | 2.62 | 
10 | Cc1ccc(N2CC(N3CCOCC3)=CC2=O)cc1 [Compound 6, 1-(4-methylphenyl)-4-morpholin-4-yl-1,5-dihydropyrrol-2-one] |  | 100% |  | 100% | 1.42 | 
11 | O=C1C=C(N2CCOCC2)CN1c1ccc(OC(F)(F)F)cc1 [Compound 9, 4-morpholin-4-yl-1-(4-trifluoromethoxyphenyl)-1,5-dihydropyrrol-2-one] | 100% |  | 148 to 153 °C |  | 2.45 | responders at 10 mg/kg ([2]; ip, dose 10 mg/kg, read-out: Action, % of the protected animals): 50%
12 | O=C1C=C(N2CCCCC2)CN1c1ccc(F)cc1 [Compound 13, 1-(4-fluorophenyl)-4-piperidin-1-yl-1,5-dihydropyrrol-2-one] |  |  | 214 to 216 °C | 0% | 2.35 | responders at 300 mg/kg [2, 6]: 0%
13 | Cc1cccc(N2CC(N3CCOCC3)=CC2=O)c1 [Compound 2, 1-(3-methylphenyl)-4-morpholin-4-yl-1,5-dihydropyrrol-2-one] | 33% |  |  |  | 1.46 | responders at 300 mg/kg [2, 6]: 100%
14 | O=C1C=C(N2CCCC2)CN1c1ccc(Cl)cc1 [Compound 17, 1-(4-chlorophenyl)-4-pyrrolidin-1-yl-1,5-dihydropyrrol-2-one] |  |  | 223 to 227 °C | 66% | 2.6 | responders at 300 mg/kg [2, 6]: 0%
15 | O=C1C=C(N2CCOCC2)CN1c1ccc(F)c(Cl)c1 [Compound 10, 1-(3-chloro-4-fluorophenyl)-4-morpholin-4-yl-1,5-dihydropyrrol-2-one] | 100% | 100% | 162 to 166 °C |  | 2.19 | 
16 | CN1CCN=C(c2ccccc2)c2cc(Cl)ccc21 [Medazepam, medazepam] |  |  |  |  |  | anxiolytic action (in words) ([4]; dose range from 0.3 to 3 mg/kg p.o.): not possible to detect; Changed number of impulses to the control in % ([4]; 0.3 mg/kg p.o.): 100%; Changed number of impulses to the control in % ([4]; 1.0 mg/kg p.o.): 131%; Changed number of impulses to the control in % ([4]; 3 mg/kg p.o.): 78%
17 | CC1CCN(C2=CC(=O)N(c3ccc(Cl)cc3)C2)CC1 [Compound 18, 1-(4-chlorophenyl)-4-(4-methylpiperidin-1-yl)-1,5-dihydropyrrol-2-one] | 66% | 66% | 194 to 196 °C |  |  | 
18 | O=C1C=C(N2CCCCC2)CN1c1ccc(Cl)cc1 [Compound 14, 1-(4-chlorophenyl)-4-piperidin-1-yl-1,5-dihydropyrrol-2-one] | 100% | 100% |  |  | 3.06 | 
19 | NC(=O)N1c2ccccc2C=Cc2ccccc21 [Carbamazepin, reference compound] |  |  |  |  |  | Action, % of the protected animals ([1]; dose 100 mg/kg): 100%; Action, % of the protected animals ([2]; dose 100 mg/kg): 0%
20 | CN1C(=O)CN=C(c2ccccc2)c2cc(Cl)ccc21 [Diazepam, diazepam] |  |  |  |  |  | Changed number of impulses to the control in % ([4]; 0.1 mg/kg p.o.): 94%; Changed number of impulses to the control in % ([4]; 0.3 mg/kg p.o.): 114%; Changed number of impulses to the control in % ([4]; 1.0 mg/kg p.o.): 148%; Changed number of impulses to the control in % ([4]; 3 mg/kg p.o.): 167%
21 | COCCN(CCOC)C1=CC(=O)N(c2ccc(Cl)cc2)C1 [Compound 24, 1-(4-chlorophenyl)-4-(bis(methoxyethyl)amino)-1,5-dihydropyrrol-2-one] |  |  | 189 to 195 °C | 33% |  | responders at 300 mg/kg [2, 6]: 66%
22 | CCCC(CCC)C(=O)O [Valproate, reference compound] | 0% | 30% |  |  |  | 
23 | O=C1CN=C(c2ccccc2Cl)c2cc([N+](=O)[O-])ccc2N1 [Clonazepam, clonazepam] |  |  |  |  |  | Changed number of impulses to the control in % ([4]; 0.1 mg/kg p.o.): 122%; Changed number of impulses to the control in % ([4]; 0.3 mg/kg p.o.): 128%; Changed number of impulses to the control in % ([4]; 1.0 mg/kg p.o.): 173%; dose from which an anxiolytic action was detected / equally effective dose [4]: 1 mg/kg
24 | O=C1C=C(N2CCCCC2)CN1c1ccc(F)c(Cl)c1 [Compound 16, 1-(3-chloro-4-fluorophenyl)-4-piperidin-1-yl-1,5-dihydropyrrol-2-one] |  |  | 195 to 196 °C | 100% |  | responders at 300 mg/kg [2, 6]: 0%
25 | O=C1C=C(N2CCOCC2)CN1c1ccccc1Cl [Compound 1, 1-(2-chlorophenyl)-4-morpholin-4-yl-1,5-dihydropyrrol-2-one] | 0% | 0% | 154 to 156 °C |  |  | dose from which an anxiolytic action was detected / equally effective dose [4]: 3 mg/kg
26 | CN1CCN(C2=CC(=O)N(c3ccc(Cl)cc3)C2)CC1 [Compound 21, 1-(4-chlorophenyl)-4-(4-methylpiperazin-1-yl)-1,5-dihydropyrrol-2-one] | 66% | 100% | 194 to 197 °C |  |  | 
27 | O=C1C=C(N2CCCCCC2)CN1c1ccc(Cl)cc1 [Compound 22, 1-(4-chlorophenyl)-4-azepam-1-yl-1,5-dihydropyrrol-2-one] |  |  |  |  |  | Action, % of the protected animals ([1]; dose 300 mg/kg): 100%; Action, % of the protected animals ([2]; dose 300 mg/kg): 100%; log P (octanol/water partition coefficient) [3]: 3.40
